One block for each molecule: values may come before it.
How the values were obtained:
rat model of diabetes [1] = assay: In-vivo screening: creatinine clearance in STZ-induced diabetic rats; conditions: b.i.d., 8 weeks, after 12 weeks of STZ diabetes, versus untreated diabetic group
Description: (§1) The test compounds were studied for their beneficial effects on diabetic neuropathy and nephropathy in a rat model of diabetes. The rats were divided into three groups. The first group consisted of age matched untreated non-diabetic animals. The second group consisted of diabetic controls and the third group was the diabetic group treated with the test compound. Each treatment group had its own corresponding control and diabetic groups. The second and third groups were treated with Streptozotocin (STZ) at 60mg/kg for the induction of diabetes. After completion of 12 weeks of diabetes the rats were treated with the test compound daily (doses shown in table) for a period of 8 weeks. At the end of the treatment the creatinine clearances and nerve conduction velocities (NCV) of the animals were estimated. Creatinine clearances of the rats were estimated as follows Creatinine clearance =(Concentration of creatinine in the urine)/(Concentration of creatinine in the blood.)x ml urine passed/minute [formula]
The creatinine clearance in untreated diabetic group was compared with the treated group and the percentage improvements are shown in the Table 3.

rat model of diabetes [2] = assay: In-vivo screening: nerve conduction velocity in STZ-induced diabetic rats; conditions: b.i.d., 8 weeks, after 12 weeks of STZ diabetes
Description: as §1, with “Creatinine clearances of the rats were estimated as follows Creatinine clearance =(Concentration of creatinine in the urine)/(Concentration of creatinine in the blood.)x ml urine passed/minute [formula]” left out
The nerve conduction velocity was measured using a modified method of Biro et al 1998. […] Electromyograms (EMG's) recorded from the plantar muscles consisted of two components: (l) the short latency direct motor response (M) and the monosynaptically elicited long-latency sensory response (H, Hoffmann reflex). Latency and the duration of the M responses were measured and the motor nerve conduction velocity (MNCV) was calculated as follows : MNCV =(Distance between the sciatic and tibial stimulation points.)/(Differences of the latency for Msciatic and Mtibial) [formula] […]

AGE-BSA = target: T1, AGE-BSA (Bos taurus, UniProt P02769); assay: In-vitro screening for AGE-breaking activity (ELISA on 16 weeks AGE-BSA); type: biochemical, bovine; conditions: for % breakage of AGE-BSA crosslinks at 5000 µM: Concentration 5 mM; for % breakage of AGE-BSA crosslinks at 1000 µM: Concentration 1 mM; for % breakage of AGE-BSA crosslinks at 10000 µM: Concentration 10 mM
T1 construct: Bovine serum albumin (fraction V) (BSA); from tissue; host or cells: bovine serum (fraction V albumin)
Description: • Materials: • Bovine serum albumin (fraction V) (BSA) • Glucose, analytical grade • Phosphate buffered saline (PBS) • Equipment: • Microplate ELISA Reader - Spectramax Plus (Molecular Devices, USA) • Microplate washer, (Bio -Tec Instruments, USA) • pH meter Methods of experiment: Elisa (Enzyme Linked Immunosorbent Assay) 160 mg/ml of protein, bovine serum albumin, BSA and 1.6M glucose sugar were dissolved in phosphate buffered saline, PBS. Sodium azide was added at 0.02% concentration as a preservative. The solution was filtered asceptically through a 0.22 µM filter and kept for aging at 37°C for 16 weeks. After 16 weeks the solution was dialyzed against PBS, aliquoted and stored at - 20°C.
To determine the AGE breaking activity, 10µg/ml of the 16 weeks AGE-BSA was incubated with different concentrations of the test compounds at 37°C for 24 hours and AGE breaking activity of the test compounds by ELISA was determined. […] Different concentrations of 16 weeks AGE-BSA were coated on a microtitre plate as standard. Each concentration is coated in triplicates. • 2. The test samples were coated on microtitre plate at a concentration of 5 ng. to 20 ng per well in triplicates. • 3. The plate was incubated at 37°C for one hour. • 4. After incubation the plate was washed with PBST (PBS with 0.05% Tween 20). • 5. Blocking with 5% skimmed milk in PBS at 37°C for one hour was done. • 6. The plate was washed with PBST. • 7. Primary antibody against AGE-BSA was added and the plate is incubated at 37°C for one hour. • 8. The plate was washed with PBST • 9. Secondary antibody anti rabbit HRPO (Horse-Radish Per Oxidase) conjugate was added and the plate is incubated at 37°C for one hour. • 10. The plate was washed with PBST. • 11. Colour development with OPD (orthophenylenediamine dihydrochloride) and hydrogen peroxide was done. • 12. OD (optical density) at (450nm reading - 620nm reading) was measured after incubation at 37°C for 15 minutes with Microplate ELISA Reader.
The breaker activity of the compounds were determined by the following formula: % Breaker activity =(OD450-620 Control - OD450-620 Test)/(OD450-620 Control)x 100 [formula]

[3] = 10µg/ml 16 weeks AGE-BSA, 37°C, 24 hours

T1 sequence (P02769 25-607): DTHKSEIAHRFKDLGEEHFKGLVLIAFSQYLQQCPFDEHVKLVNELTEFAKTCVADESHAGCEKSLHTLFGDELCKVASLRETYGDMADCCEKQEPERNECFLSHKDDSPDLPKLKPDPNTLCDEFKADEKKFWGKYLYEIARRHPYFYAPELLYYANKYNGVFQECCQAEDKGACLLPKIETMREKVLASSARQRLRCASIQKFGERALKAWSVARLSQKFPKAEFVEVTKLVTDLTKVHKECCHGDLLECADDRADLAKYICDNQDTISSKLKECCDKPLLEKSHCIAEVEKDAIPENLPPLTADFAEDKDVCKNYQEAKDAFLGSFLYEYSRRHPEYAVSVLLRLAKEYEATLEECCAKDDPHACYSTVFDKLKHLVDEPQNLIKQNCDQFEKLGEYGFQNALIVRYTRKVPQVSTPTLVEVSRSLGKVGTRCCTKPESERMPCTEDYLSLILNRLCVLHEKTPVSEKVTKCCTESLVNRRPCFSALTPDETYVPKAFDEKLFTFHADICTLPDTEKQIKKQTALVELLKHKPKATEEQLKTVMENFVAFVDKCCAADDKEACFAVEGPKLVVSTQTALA

% breakage of AGE-BSA crosslinks at 5000 µM (AGE-BSA; [3]): 20%
SMILES: O=C(NNC(=O)c1ccc[n+](CC(=O)c2cccs2)c1)c1ccc[n+](CC(=O)c2cccs2)c1 [Compound 15, N,N'-bis [3-carbonyl-1-(2-thien-2'-yl-2-oxoethyl)pyridinium] hydrazine dichloride]
% Increase in creatinine clearance (rat model of diabetes [1]; 7.5 mg/kg): 103.0%
% Increase in the NCV (rat model of diabetes [2]; 7.5 mg/kg): 60.0%

% breakage of AGE-BSA crosslinks at 5000 µM (AGE-BSA; [3]): 22.8%
SMILES: O=C(C[n+]1cccc(C(=O)NNC(=O)c2ccc[n+](CC(=O)NC3CC3)c2)c1)NC1CC1 [Compound 21, N,N'-bis-[3-carbonyl-1-(2-cyclopropylamino-2-oxoethyl)pyridinium] hydrazine dichloride]
% Increase in creatinine clearance (rat model of diabetes [1]; 6.0 mg/kg): 5.0%
% Increase in the NCV (rat model of diabetes [2]; 6.0 mg/kg): 58.4%

SMILES: CCOC(=O)C1CCCN1C(=O)C[n+]1cccc(C(=O)NNS(C)(=O)=O)c1 (stereo not drawn) [Compound 34, 1-(2-(2-ethoxycarbonylpyrrolidin-1-yl)-2-oxoethyl)-3-(methanesulfonyl hydrazinocarbonyl) pyridinium chloride]
inhibition at 10000 µM (AGE-BSA; read-out: % Breakage): 25.3%

% breakage of AGE-BSA crosslinks at 1000 µM (AGE-BSA; [3]): 42%
SMILES: CS(=O)(=O)NNC(=O)c1ccc[n+](CC(=O)c2ccc([N+](=O)[O-])s2)c1 [Compound 49, 1-2-(5-nitro-thien-2-yl)-2-oxoethyl)-3-(methanesulfonyl hydrazino carbonyl) pyridinium chloride]

% breakage of AGE-BSA crosslinks at 1000 µM (AGE-BSA; [3]): 95.4%
SMILES: NC(=O)c1cc(C(=O)NNC(=O)c2ccc[n+](CC(=O)c3cccs3)c2)c[n+](CC(=O)c2cccs2)c1 [Compound 42, 1-[1-(2-thien-2'-yl-2-oxoethyl)-5-aminocarbonyl-3-carbonylpyridinium]-2-[1-(2-Thien-2'-yl-2-oxoethyl)-3-carbonylpyridinium] hydrazine dichloride]

% breakage of AGE-BSA crosslinks at 2500 µM (AGE-BSA; Concentration 2.5 mM, 10µg/ml 16 weeks AGE-BSA, 37°C, 24 hours): 85.7%
SMILES: Cc1ccc(C(=O)NNC(=O)c2ccc[n+](CC(=O)c3cccs3)c2)c[n+]1CC(=O)c1cccs1 [Compound 31, 1-[1-(2-thien-2'-yl-2-oxoethyl)-6-methyl-3-carbonylpyridinium]-2-[1-(2-Thien-2'-yl-2-oxoethyl)-3-carbonylpyridinium] hydrazine dichloride]

% breakage of AGE-BSA crosslinks at 10000 µM (AGE-BSA; [3]): 78.4%
SMILES: O=C(NNC(=O)c1ccc[n+](CC(=O)c2ccc(Cl)s2)c1)c1ccc[n+](CC(=O)c2ccc(Cl)s2)c1 [Compound 44, N,N'-bis[3-carbonyl-1-(2-(5-chloro-thien-2-yl)-2-oxoethyl)pyridinium] hydrazine dichloride]

% breakage of AGE-BSA crosslinks at 10000 µM (AGE-BSA; [3]): 31.4%
SMILES: CC(C)S(=O)(=O)NNC(=O)c1ccc[n+](CC(=O)c2cccs2)c1 [Compound 32, 1-(2-thien-2'-yl-2-oxoethyl)-3-(isopropylsulfonyl hydrazinocarbonyl) pyridinium bromide]

% breakage of AGE-BSA crosslinks at 10000 µM (AGE-BSA; [3]): 17.5%
SMILES: CS(=O)(=O)NNC(=O)c1ccc[n+](CC(=O)c2cccs2)c1 [Compound 27, 1-(2-thien-2'-yl-2-oxoethyl)-3-(methanesulfonyl hydrazinocarbonyl) pyridinium chloride]

SMILES: COCCNC(=O)c1ccc[n+](CC(=O)NC2CC2)c1 [Compound 22, 1-(2-cyclopropylamino-2-oxoethyl)-3-(2-methoxyethylaminocarbonyl)-pyridinium chloride]
inhibition at 10000 µM (AGE-BSA; read-out: % Breakage): 12.4%

SMILES: O=C(C[n+]1cccc(C(=O)NNc2ccccc2)c1)Nc1ccccc1 [Compound 47, 1-(2-phenylamino-2-oxoethyl)-3-(phenyl hydrazinocarbonyl) pyridinium chloride]
inhibition at 2500 µM (AGE-BSA; read-out: % Breakage): 68.3%

SMILES: CS(=O)(=O)NNC(=O)c1ccc[n+](CC(=O)c2ccc(Cl)s2)c1 [Compound 37, 1-(2-(5-chloro-thien-2-yl)-2-oxoethyl)-3-(methanesulfonyl hydrazinocarbonyl) pyridinium bromide]
inhibition at 10000 µM (AGE-BSA; read-out: % Breakage): 40.9%

% breakage of AGE-BSA crosslinks at 10000 µM (AGE-BSA; [3]): 13%
inhibition at 25000 µM (AGE-BSA; Concentration 25 mM, 10µg/ml 16 weeks AGE-BSA, 37°C, 24 hours, read-out: % Breakage): 41%
SMILES: COCCOC(=O)c1ccc[n+](CC(=O)c2ccc(Cl)cc2Cl)c1 [Compound 4, 1-(2-(2',4'-dichlorophenyl)-2-oxoethyl)-3-(2(methoxy)ethyloxycarbonyl) pyridinium bromide]

% breakage of AGE-BSA crosslinks at 10000 µM (AGE-BSA; [3]): 20.3%
SMILES: CCOC(=O)C1CCCN1C(=O)C[n+]1cccc(C(=O)NNC(=O)c2ccc[n+](CC(=O)N3CCCC3C(=O)OCC)c2)c1 (stereo not drawn) [Compound 41, N,N'-bis[3-carbonyl-1-(2-(2-ethoxycarbonylpyrrolidin-1-yl)-2-oxoethyl)pyridinium] hydrazine dichloride]

SMILES: O=C(NNC(=O)c1ccc[n+](CC(=O)c2cc([N+](=O)[O-])cs2)c1)c1ccc[n+](CC(=O)c2cc([N+](=O)[O-])cs2)c1 [Compound 38, N,N'-bis[3-carbonyl-1-(2-(4-nitro-thien-2-yl)-2-oxoethyl)pyridinium] hydrazine dichloride]
inhibition at 10000 µM (AGE-BSA; read-out: % Breakage): 75.9%

% breakage of AGE-BSA crosslinks at 10000 µM (AGE-BSA; [3]): 12.5%
SMILES: O=C(NNC(=O)c1cccnc1Cl)c1ccc[n+](CC(=O)c2cccs2)c1 [Compound 24, 1-(2-thien-2'yl-2-oxoethyl)-3-(2-(2-chloro-3-pyridoylhydrazinocarbonyl) -pyridinium chloride]

% breakage of AGE-BSA crosslinks at 1000 µM (AGE-BSA; [3]): 77.7%
SMILES: Cc1ccc(C(=O)NNS(C)(=O)=O)c[n+]1CC(=O)c1cccs1 [Compound 39, 1-(2-thien-2'-yl-2-oxoethyl)-3-(methanesulfonyl hydrazinocarbonyl) -6-methyl pyridinium bromide]

SMILES: O=C(C[n+]1ccsc1)c1ccccc1 [PTB, N- phenacyl thiazolium bromide, reference compound]
inhibition at 10000 µM (AGE-BSA; read-out: % Breakage): 27%
inhibition at 20000 µM (AGE-BSA; read-out: % Breakage): 47%

— EP1243581A1, “Pyridinium compounds useful for the treatment of AGE-related diseases” (Torrent Pharmaceuticals Ltd, priority 2001, dated 2002)
